Laboratory results as given in patent US10322103B2, “Compositions for prevention/prophylactic treatment of poison ivy dermatitis” (The University of Mississippi, priority 2008, dated 2019).

Assays:
[1] = system: urushiol contact dermatitis; test: Induction of tolerance to poison ivy/poison oak urushiol in the guinea pig contact dermatitis model; type: in vivo, Hartley guinea pigs; settings: for erythema at the exposure site / erythema or edema observed: Test #1; for erythema at the exposure site: 24, 48 or 72 hrs post challenge, urushiol 3.0, 4.5 and 6.0 ug; for erythema or edema at the site of urushiol challenge: 24 hours, any of the doses used; for skin lesion scores compared to groups IV and V: all the 3 tests
From the text: Animals: Hartley strains of guinea pigs (n=40) were obtained from Harlan, Indianapolis Ind. 46229. The animals were divided in the 5 groups (n=8/group) and treated as described hereunder. These animals were kept in a controlled environment with a 12-hour day and night cycle and provided feed and water ad libitum. Study design: FIG. 8 describes the general procedure for determining the efficacy of the agents produced according to the present invention.
Application sites of urushiol challenge doses on abdominal skin are shown in FIG. 9, and are described below.
Group I. Animals in this group were given the compound (4) (HDC 4-(4-aminophenyl) butyrate ester) via the intramuscular (IM) route; 300 ul of the equivalent of 20 mg/mL solution of the free catechol in 5% ethanol in each hind leg. Two weeks later these animals were sensitized with urushiol (100 uL acetone containing 1.0 mg of urushiol) on the surface skin in the neck region. Two weeks later the animals were challenged with urushiol (15 uL volume acetone containing 3.0 ug, 4.5 ug or 6.0 ug) on the abdominal skin in a volume of 15 uL. The vehicle contained 15 uL of acetone (see diagram 2). The animals were tested 3 times after sensitization: Test #1 at two weeks post sensitization, test #2 conducted at four weeks post sensitization and test #3 was conducted twelve weeks post sensitization.
Group II. Animals were given 300 uL of the equivalent of 20 mg/mL solution of the free catechol in 5% ethanol of HDC Phenyl alaninate ester (compound 3) via the IM route in each hind leg (total 600 uL). This was followed by sensitization with urushiol on the neck, and then tested with urushiol challenge on the abdominal skin as described for group I.
Group III. Animals were given 300 uL of the equivalent of 20 mg/mL solution of the free catechol in 5% ethanol of HDC Hemiglutarate ester (compound 5) via the IM route in each hind leg. This was followed, two weeks later, by sensitization with (urushiol 100 uL) on the neck, followed by abdominal skin test as described for group I.
Group IV. Animals were given 300 uL of vehicle (5% ethanol) via the IM route in each of the hind legs. This was followed, two weeks later, by sensitization and then followed by abdominal skin test as described for group I.
Group V. Animals in this group were given PBS (300 uL in each of the hind legs) via the IM route. This was followed two weeks later by sensitization and then followed by abdominal skin test as described for group I.
After challenging the animals with urushiol on their abdominal skin, the severity of Erythema and Edema were observed and scored according to the Draize scoring system as shown below. The scores were recorded at 24, 48 and 72 hrs post urushiol skin application.

[2] = Polarity: dissolution in ethanol and dilution with aqueous medium; type: physicochemical
From the text: Polarity of HDC-Phenyl Alaninate Ester:

[3] = Test #2, 48 hours, urushiol challenge dose 4.5 ug
[4] = Test #2, 48 hours, urushiol challenge dose 6.0 ug

| appearance of solution (polarity) ([2]; 10 mg dissolved in 50 ul of ethanol, adjusted to 1 ml with water) | appearance of solution (polarity) ([2]; 10 mg as a HCl salt in 50 ul of ethanol, adjusted to 1 mL with water (10 mg/mL)) | appearance of solution (polarity) ([2]; 10 mg in 50 ul of ethanol, adjusted to 1 ml with potassium phosphate buffer (pH 8)) | SMILES | erythema at the exposure site [1] | erythema or edema observed ([1]; 48 hours post challenge) | erythema or edema observed ([1]; 72 hours post challenge) | skin lesion score ([1]; Test #2, 48 hours, all challenge doses) | erythema or edema at the site of urushiol challenge ([1]; Test #3) | lesion score ([1]; Test #3, 48 hours) | skin lesion scores compared to groups IV and V [1] | total skin lesion score [1, 3] | total skin lesion score [1, 4] | total lesion score ([1]; Test #2, 72 hours) |
| --- | --- | --- | --- | --- | --- | --- | --- | --- | --- | --- | --- | --- | --- |
| formed a homogenous solution | – | – | CCCCCCCCCCCCCCCCCc1cccc(OC(=O)[C@@H](N)Cc2ccccc2)c1OC(=O)[C@@H](N)Cc1ccccc1 [Compound 3, HDC-Phenyl Alaninate Ester] | did not show any or showed very slight erythema | no erythema or edema was observed | no erythema or edema was observed | ≤ 1.0 | did not show erythema or edema | ≤ 1.0 | negligible | – | – | – |
| – | clear solution | – | CCCCCCCCCCCCCCCCCc1cccc(OC(=O)CCCc2ccc(N)cc2)c1OC(=O)CCCc1ccc(N)cc1 [Compound 4] | did not show any or showed very slight erythema | no erythema or edema was observed | no erythema or edema was observed | – | did not show erythema or edema | – | negligible | 1.5 | 1.5 | – |
| – | – | formed a homogenous solution | CCCCCCCCCCCCCCCCCc1cccc(OC(=O)CCCC(=O)O)c1OC(=O)CCCC(=O)O [Compound 5, 5,5′(3-heptadecyl-1,2-phenylene)bis(oxy)bis(5-oxopentanoic acid)] | did not show any or showed very slight erythema | no erythema or edema was observed | no erythema or edema was observed | – | did not show erythema or edema | – | negligible | 1.0 | 2.5 | ≤ 2.0 |
